How the values were obtained:
hEPO mRNA = assay: hEPO expression after intravenous administration to rats; format: in vivo, rat; details: for hEPO expression / hEPO expression, 0.25 h / hEPO expression, 0.5 h / hEPO expression, 1 h / hEPO expression, 2 h / hEPO expression, 4 h / hEPO expression, 8 h / hEPO expression, 24 h / hEPO expression, 48 h: rat; for hEPO expression: intravenous, 6 h, 2 mpk; for Lipid/MC3 hEPO conc. ratio, 0.2 mpk / Lipid/MC3 hEPO conc. ratio, 2 mpk: rats, 6 hours; for Lipid/MC3 hEPO conc. ratio, 0.2 mpk / hEPO expression, 0.25 h / hEPO expression, 0.5 h / hEPO expression, 1 h / hEPO expression, 2 h / hEPO expression, 4 h / hEPO expression, 8 h / hEPO expression, 24 h / hEPO expression, 48 h: intravenous 0.2 mpk; for Lipid/MC3 hEPO conc. ratio, 2 mpk: intravenous 2 mpk
Experimental: The expression of hEPO and cytokine induction in rats intravenously administered a nanoparticle composition at a dose of 2.0 mpk was measured at 6 h.
The expression of hEPO in rats intravenously administered a nanoparticle composition at a dose of 0.2 mpk or 2.0 mpk was measured at 6 hours. Table 16 summarize the ratio of hEPO expression levels using various nanoparticle compositions as compared to the hEPO expression level using MC3 formulation and the lipid levels in the liver measured 48 hours after administration, as described above. Tables 17 and 18 summarize the lipid levels in the liver and spleen measured 48 hours after administration of Compounds 28, 33, 53, and 54. Liver and spleen levels represent the average values calculated for 3 rats in each group. As is shown in Tables 17 and 18, less than 10% of Compounds 28, 33, 53, and 54 remained in the liver after 48 hours, while greater than 60% of MC3 remained.
Table 19A summarizes the hEPO expression, IP-10 induction, liver and spleen levels, and alanine aminotransferase (ALT) and aspartate aminotransferase (AST) measured upon intravenous administration of formulations including Compounds 48, 49, and 50 to rat at 0.2 and 2 mpk and hEPO mRNA. hEPO concentrations were measured 6 hours after administration, while cytokine induction and liver and spleen levels were measured 48 hours after administration. hEPO and IP-10 concentrations are presented in pg/ml, while liver levels are provided in ng/g. ALT and AST levels are presented in international units.
The expression of hEPO induced by intravenous administration to rats of nanoparticle compositions at various doses was measured at 2, 4, 6, 8, 24, and 48 hour time points. FIGS. 3-6 respectively summarize the hEPO expression measured upon intravenous administration of formulations including Compounds 26, 18, 25, and MC3 to rat at various doses. The lipid levels of Compound 26 in the liver after 48 hours were about 19%.
The expression of hEPO and lipid levels in the liver and spleen in rats intravenously administered a nanoparticle composition at a dose of 0.2 mpk was measured at various time points. Compounds 18 and 25 were selected for comparison with MC3. Lipids were formulated according to the standard MC3 formulation described above. Rats were administered intravenously a single 0.2 mpk dose and expression monitored at 0.25, 0.5, 1, 2, 4, 8, 24, and 48 hours after administration.

[1] = Encapsulation efficiency of RNA in nanoparticle compositions (RIBOGREEN assay); format: physicochemical
How it was run: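 Lipid nanoparticles (ionisable lipid:DSPC:cholesterol:PEG-DMG 50:10:38.5:1.5 mol %) carrying N1-methylpseudouridine luciferase or hEPO mRNA diluted to about 5 μg/mL in TE, pH 7.5, with or without 2% Triton X-100, 15 min at 37° C. RiboGreen fluorescence (ex ~480, em ~520 nm) blank-subtracted; free RNA = intact/disrupted signal.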

IL-6, IP-10 = assay: Cytokine induction (IL-6, IP-10) in mice 6 hours after intravenous administration; format: in vivo; set-up: unit not given here; details: intravenous 0.5 mpk
How it was run: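 IL-6 and IP-10 concentrations determined 6 hours after a single intravenous 0.5 mpk dose of lipid nanoparticle formulation in mice, with MC3 and PBS as comparators.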

[2] = Particle size and polydispersity index of nanoparticle compositions (Zetasizer Nano ZS); format: physicochemical
How it was run: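 Formulations of ionizable lipid, DSPC, cholesterol and PEG-DMG (50:10:38.5:1.5 mol %) carrying Luc or hEPO mRNA with all uridines as N1-methyl pseudouridine. Dynamic light scattering in 1×PBS gave particle size and polydispersity; zeta potential read in 15 mM PBS.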

[3] = Table 1A, lipid:DSPC:cholesterol:PEG-DMG 50:10:38.5:1.5 mol %
[4] = Table 1B, formulated with hEPO mRNA
[5] = Table 1D, compositions for subcutaneous administration, # formulated with hEPO mRNA
[6] = Table 1C, compositions for subcutaneous administration

Molecule	hEPO expression (hEPO mRNA) [pg/mL]	Lipid/MC3 hEPO conc. ratio, 0.2 mpk (hEPO mRNA)	Lipid/MC3 hEPO conc. ratio, 2 mpk (hEPO mRNA)	EE [1, 3] [%]	Cytokine induction, IL-6 (IL-6, IP-10)	Cytokine induction, IP-10 (IL-6, IP-10)	Size [2, 3] [nm]	hEPO expression, 0.25 h (hEPO mRNA) [pg/mL]	hEPO expression, 0.5 h (hEPO mRNA) [pg/mL]	hEPO expression, 1 h (hEPO mRNA) [pg/mL]	hEPO expression, 2 h (hEPO mRNA) [pg/mL]	hEPO expression, 4 h (hEPO mRNA) [pg/mL]	hEPO expression, 8 h (hEPO mRNA) [pg/mL]	hEPO expression, 24 h (hEPO mRNA) [pg/mL]	hEPO expression, 48 h (hEPO mRNA) [pg/mL]	EE [1, 4] [%]	Size [2, 4] [nm]	Size [2, 5] [nm]	Size [2, 6] [nm]	PDI [2, 3]
CCCCCCCCCN(CCO)CCCCCCCC(=O)OC(CCCCCCCC)CCCCCCCC [Compound 3, Heptadecan-9-yl 8-((2-hydroxyethyl)(nonyl)amino)octanoate]	1.74e+07	2.41	1.21	92.25	282.88	2052.87	97.5	–	–	–	–	–	–	–	–	–	–	–	–	–
CCCCCCCCCOC(=O)CCCCCCCN(CCO)CCCCCCCC(=O)OC(CCCCCCCC)CCCCCCCC [Compound 18, Heptadecan-9-yl 8-((2-hydroxyethyl)(8-(nonyloxy)-8-oxooctyl)amino)octanoate]	9.96e+06	–	0.81	–	78.76	139.92	87.9	20227	20743	194353	238107	514807	915320	412051	52361	96.95	73.7	75.0	–	–
CCCCCC/C=C\COC(=O)CCCCCCCN(CCO)CCCCCCCC(=O)OC(CCCCCCCC)CCCCCCCC [Compound 24, Heptadecan-9-yl (Z)-8-((2-hydroxyethyl) (8-(non-2-en-1-yloxy)-8-oxooctyl)amino)octanoate]	1.44e+07	1.75	1.01	–	163.53	1172.93	99.5	–	–	–	–	–	–	–	–	–	–	–	88.5	–
CCCCCCCCCCCOC(=O)CCCCCN(CCO)CCCCCCCC(=O)OC(CCCCCCCC)CCCCCCCC [Compound 25, Heptadecan-9-yl 8-((2-hydroxyethyl)(6-oxo-6-(undecyloxy)hexyl)amino)octanoate]	3.05e+07	2.41	2.13	95.80	233.45	1194.13	–	0	19553	434299	2042807	3176560	2631633	869374	103089	97.92	69.7	77.6	76.3	–
CCCCCCCCCOC(=O)CCCN(CCO)CCCCCCCC(=O)OC(CCCCCCCC)CCCCCCCC [Compound 26, Heptadecan-9-yl 8-((2-hydroxyethyl)(4-(nonyloxy)-4-oxobutyl)amino) octanoate]	–	–	4.95	–	273.56	2330.01	–	–	–	–	–	–	–	–	–	–	–	–	–	–
CCCCCCCCCOC(=O)CCCCCCCN(CCO)CCCCCCCOC(=O)C(CCCCCCCC)CCCCCCCC [Compound 30, 7-((2-Hydroxyethyl)(8-(nonyloxy)-8-oxooctyl)amino)heptyl 2-octyldecanoate]	1.63e+07	1.87	1.14	95.69	152.51	1638.77	59.4	–	–	–	–	–	–	–	–	96.32	76.3	89.8	81.7	–
CCCCCCCCC(C)OC(=O)CCCCCCCN(CCO)CCCCCCCC(=O)OC(CCCCCCCC)CCCCCCCC (stereo not drawn) [Compound 48, decan-2-yl 8-((8-(heptadecan-9-yloxy)-8-oxooctyl)(2-hydroxyethyl)amino)octanoate]	–	5.39	3.84	96.55	–	–	82.3	–	–	–	–	–	–	–	–	–	–	79.8	–	–
Nonyl 8-((6-(heptadecan-9-yloxy)-6-oxohexyl)(2-hydroxyethyl)amino) octanoate [Compound 27]	–	–	–	94.27	161.07	345.56	82.3	–	–	–	–	–	–	–	–	–	–	–	–	0.18
